Values quoted from earlier work, collected in patent US20060030591A1 (Wyeth, priority 2004, published 2006).

Key:
[1] = system: tamoxifen-sensitive cells lines; conditions: other studies, qualitative
uterus = conditions: qualitative
[2] = system: tamoxifen-resistent MCF-7 breast cancer xenografts; conditions: recent preclinical studies, qualitative

With `Cc1c(-c2ccc(O)cc2)n(Cc2ccc(OCCN3CCCCC3)cc2)c2ccc(O)cc12.Cl` [pipindoxifene, 2-(4-hydroxyphenyl)-3-methyl-1-[4-(2-piperidin-1-yl-ethoxy)-benzyl]-1H-indol-5-ol hydrochloride] as the compound, how does the “effectiveness in tamoxifen-sensitive cells lines” value [1] read?
The value was “show effectiveness”.

What about the “effect in the uterus” value (uterus; Greenberger, et al., Clin. Cancer Res. (2001)) of the same compound?
Its value is “antiestrogenic in the uterus”.

And the uterotropic activity (uterus; tissue selective estrogenic effects)?
Its uterotropic activity is “little or no uterotropic activity”.

And the “growth of tamoxifen-resistent MCF-7 breast cancer xenografts” value [2]?
The value was “inhibited the growth”.
